Experimental data: the supplement of paper PMC10307832

Experiments:
Assay in all cases: relative viability (nuclei count vs DMSO), 5 days (fraction); higher = more cells survive
BI-2536 + Navitoclax = compound: CC[C@@H]1C(=O)N(C)c2cnc(Nc3ccc(C(=O)NC4CCN(C)CC4)cc3OC)nc2N1C1CCCC1 [BI-2536] + CC1(C)CCC(c2ccc(Cl)cc2)=C(CN2CCN(c3ccc(C(=O)NS(=O)(=O)c4ccc(N[C@H](CCN5CCOCC5)CSc5ccccc5)c(S(=O)(=O)C(F)(F)F)c4)cc3)CC2)C1 [Navitoclax] (partner 0.5 µM)
Procedure, shortened: (§1)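 Nuclei were stained with Hoechst during a one-step fixation (final 0.05% Triton X-100, 1% formaldehyde, 1 ug/ml Hoechst) carried out 5 days after dosing, then counted on 4× images. The cells, lung cancer lines in 1536-well plates, had been dosed by pin tool the day after seeding with one drug alone or a fixed anchor-drug dose plus five library-drug doses (not always all listed) in √10 steps. Relative viability is the nuclei count in treated wells divided by that in vehicle wells, and each value is the median of duplicate plates.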

[1] = compound: CC1CC(=O)N(C2=CN=C(N=C2N1C3CCCC3)NC4=C(C=C(C=C4)C(=O)NC5CCN(CC5)C)OC)C [NPK76-II-72-1] + O=C(CCCCCCC(=O)Nc1ccccc1)NO [Vorinostat] (partner 1 µM)
Procedure, shortened: as §1

BI-2536 + Linsitinib = compound: CC[C@@H]1C(=O)N(C)c2cnc(Nc3ccc(C(=O)NC4CCN(C)CC4)cc3OC)nc2N1C1CCCC1 [BI-2536] + C[C@]1(O)C[C@@H](c2nc(-c3ccc4ccc(-c5ccccc5)nc4c3)c3c(N)nccn32)C1 [Linsitinib] (partner 1 µM)
Procedure, shortened: as §1

NPK76-II-72-1 + OSI-027 = compound: CC1CC(=O)N(C2=CN=C(N=C2N1C3CCCC3)NC4=C(C=C(C=C4)C(=O)NC5CCN(CC5)C)OC)C [NPK76-II-72-1] + COc1cccc2cc(-c3nc([C@H]4CC[C@H](C(=O)O)CC4)n4ncnc(N)c34)[nH]c12 [OSI-027] (partner 0.5 µM)
Procedure, shortened: as §1

Cell Line | relative viability (BI-2536 + Navitoclax; first compound 0.01 µM) | relative viability (BI-2536 + Navitoclax; first compound 0.03162 µM) | relative viability (BI-2536 + Navitoclax; first compound 0.1 µM) | relative viability (BI-2536 + Navitoclax; first compound 0.3162 µM) | relative viability (BI-2536 + Navitoclax; first compound 1 µM) | relative viability ([1]; first compound 0.01 µM) | relative viability ([1]; first compound 0.03162 µM) | relative viability ([1]; first compound 0.1 µM) | relative viability ([1]; first compound 0.3162 µM) | relative viability ([1]; first compound 1 µM) | relative viability (BI-2536 + Linsitinib; first compound 0.01 µM) | relative viability (BI-2536 + Linsitinib; first compound 0.03162 µM) | relative viability (BI-2536 + Linsitinib; first compound 0.1 µM) | relative viability (BI-2536 + Linsitinib; first compound 0.3162 µM) | relative viability (BI-2536 + Linsitinib; first compound 1 µM) | relative viability (NPK76-II-72-1 + OSI-027; first compound 0.01 µM) | relative viability (NPK76-II-72-1 + OSI-027; first compound 0.03162 µM) | relative viability (NPK76-II-72-1 + OSI-027; first compound 0.1 µM) | relative viability (NPK76-II-72-1 + OSI-027; first compound 0.3162 µM) | relative viability (NPK76-II-72-1 + OSI-027; first compound 1 µM)
201T | 1.18 | 1.16 | 1.21 | 0.939 | 0.33 | 0.803 | 0.989 | 0.93 | 0.962 | 1.14 | 1.07 | 0.866 | 1.07 | 1 | 0.345 | 0.65 | 0.677 | 0.703 | 0.673 | 0.474
A549 | 1.38 | 1.07 | 0.0366 | 0.0423 | 0.0248 | – | – | – | – | – | 0.582 | 0.536 | 0.63 | 0.294 | 0.0483 | – | – | – | – | –
A-427 | 0.961 | 0.979 | 0.941 | 0.284 | 0.165 | 0.824 | 0.856 | 0.877 | 0.855 | 0.883 | 1.15 | 1.23 | 1.08 | 1.13 | 0.304 | 0.497 | 0.526 | 0.452 | 0.376 | 0.434
ABC-1 | – | – | – | – | – | 1 | 1.13 | 0.356 | 1.36 | 1.07 | 0.816 | 0.838 | 0.895 | 0.292 | 0.253 | 0.422 | 0.418 | 0.343 | 0.458 | 0.492
BEN | 0.0623 | 0.0739 | 0.0643 | 0.0627 | 0.0546 | 0.61 | 0.711 | 0.598 | 0.591 | 0.636 | 0.876 | 0.874 | 0.83 | 0.658 | 0.222 | 0.285 | 0.292 | 0.273 | 0.295 | 0.318
CAL-12T | 1.22 | 1.17 | 0.834 | 0.164 | 0.144 | 0.532 | 0.798 | 0.687 | 0.812 | 0.688 | 0.913 | 0.808 | 0.852 | 0.165 | 0.286 | 0.626 | 0.787 | 0.601 | 0.683 | 0.823
COR-L23 | 0.883 | 0.792 | 0.358 | 0.0817 | 0.0706 | 0.408 | 0.519 | 0.408 | 0.427 | 0.48 | 0.961 | 1.06 | 0.605 | 0.104 | 0.0946 | 0.645 | 0.858 | 0.864 | 0.775 | 0.764
COR-L 105 | 0.671 | 0.757 | 0.491 | 0.311 | 0.271 | 0.747 | 0.807 | 0.832 | 0.82 | 0.989 | 0.829 | 0.915 | 0.946 | 0.277 | 0.312 | 0.644 | 0.724 | 0.718 | 0.609 | 1.09
Calu-6 | 0.825 | 0.397 | 0.106 | 0.0854 | 0.0728 | – | – | – | – | – | 0.923 | 1.02 | 0.816 | 0.0855 | 0.0964 | – | – | – | – | –
ChaGo-K-1 | 0.939 | 0.691 | 0.461 | 0.311 | 0.346 | 0.703 | 0.735 | 0.809 | 0.687 | 0.789 | – | – | – | – | – | 0.561 | 0.622 | 0.582 | 0.63 | 0.653
EBC-1 | 0.327 | 0.28 | 0.171 | 0.173 | 0.159 | – | – | – | – | – | 0.966 | 0.797 | 0.863 | 0.172 | 0.154 | – | – | – | – | –
EKVX | 0.786 | 0.874 | 1.02 | 0.15 | 0.114 | 0.634 | 0.736 | 0.684 | – | 0.921 | 1.1 | 0.96 | 0.818 | 0.368 | 0.169 | 0.66 | 0.783 | 0.501 | 0.649 | 0.821
EMC-BAC-2 | 1.27 | 1.24 | 1.21 | 0.17 | 0.134 | 0.423 | 0.186 | 0.493 | 0.416 | 0.524 | 0.852 | 0.866 | 0.872 | 0.444 | 0.236 | 0.372 | 0.351 | 0.391 | 0.361 | 0.415
EPLC-272H | 1.13 | 0.999 | – | 0.0617 | 0.0715 | 0.403 | 0.4 | 0.456 | 0.574 | 0.41 | 1.12 | 1.15 | – | 0.143 | 0.0967 | 0.307 | – | 0.287 | 0.235 | 0.305
H3255 | 0.292 | 0.359 | 0.196 | 0.113 | 0.119 | 0.873 | 0.605 | 0.722 | – | 0.797 | 0.906 | 1.03 | 0.903 | 0.227 | 0.226 | 0.445 | 0.483 | 0.531 | 0.416 | 0.588
HARA | 1.15 | 1.17 | 0.98 | 0.103 | 0.0669 | 0.493 | 0.668 | 0.564 | 0.485 | 0.603 | 0.984 | 1.2 | 0.969 | 0.0681 | 0.0677 | 0.393 | 0.424 | 0.545 | 0.345 | 0.67
HCC-15 | 0.709 | 0.693 | 0.497 | 0.202 | 0.101 | 0.785 | 0.914 | 0.814 | 0.767 | 0.91 | 0.921 | 0.965 | 0.815 | 0.28 | 0.143 | 0.561 | 0.774 | 0.683 | 0.579 | 0.78
HCC-44 | 0.956 | 1.02 | 0.849 | 0.0892 | 0.095 | 1.08 | 1.22 | 1.11 | 1.09 | 1.1 | 0.672 | 0.72 | 0.602 | 0.12 | 0.0939 | 0.617 | 0.702 | 0.337 | 0.599 | 0.65
